Assay results from patent publication US7071218B2, “N-substituted heterocycles for the treatment of hypercholesteremia, dyslipidemia and other metabolic disorders; cancer, and other diseases” (Incyte San Diego Incorporated, priority 2001, dated 2006).

Columns and labels:
[1] = test system: 3T3-L1 cells; assay: 3T3-L1 adipocyte differentiation (lipid content), alone or with rosiglitazone (BRL49653); type: cell-based, mouse; settings: 7 days of treatment; for lipid accumulation / differentiation of 3T3-L1 cells by the compound alone: 1e-10M to 1e-5M; for inhibition of adipocyte differentiation / lipid accumulation induced by rosiglitazone (BRL49653): in combination with rosiglitazone
Description: The mouse preadipocyte cell line 3T3-L1 has been extensively used to study adipocyte differentiation. Upon stimulation with differentiating agents, preadipocytes typically undergo one cell cycle expansion and then they are growth arrested and dramatically change their shape to become more rounded cells, loaded with lipids, in a fashion closely reflecting adipogenesis in vivo. In this well-known process of differentiation, peroxisome proliferator activated receptor gamma (PPARγ) and retinoid X receptor (RXR) play a key role. PPARγ binds as an obligatory heterodimer with RXR to specific responsive sequences in the promoter region of target genes. In the particular case of PPARγ/RXR heterodimers, both receptors can be activated via their specific ligands. As a consequence of such activation, adipocyte-specific genes are turned on (C/EBP, aP2, LPL, adipsin, etc) and adipocyte differentiation results. Because lipid accumulation is the endpoint of adipocyte differentiation, the quantification of lipids which have accumulated in cells upon treatment with the compound(s) of interest, will indicate the ability of that compound to trigger adipocyte differentiation. More importantly, the potency of that compound can be estimated as well based on the total amount of lipids accumulated. The amount of lipid measured at the end of the assay for each tested compound is here compared to that of Compound 73 at 0.1 μM, which is considered 100% (see FIG. 11A).
In the particular case of measuring the potential antagonistic activity of some compounds, the putative antagonist is combined together with an agonist (such as the PPARγ agonist BRL49653). Thus, the amount of lipids accumulated in response to BRL49653 (considered as 100% in this case), is decreased by the compound with antagonistic activity (see FIG. 11B).
Materials and Methods: Mouse embryo fibroblast 3T3-L1 cell line, from American Type Culture Collection (ATCC), was used as a model of adipocyte differentiation.
Growing medium (GM): DME Dulbecco's modified Eagle's medium containing 4500 mg/L glucose; 4 mM L-glutamine; 10 U/ml Pen-G; 10 mcg/ml and 10% Calf Serum (CS).
Differentiation medium (DM): DME Dulbecco's modified Eagle's medium containing 4500 mg/L glucose; 4 mM L-glutamine; 10 U/ml Pen-G; 10 mcg/ml and 10% Fetal Calf Serum (FCS). Cells are always kept at 10% CO2.
Cells were seeded at 3,000 cells/well in 96 well-tissue culture plates in growing medium.
Two days after reaching confluence, cells were treated with the different compounds of interest in DM (Day 0). Drugs were replaced every 2–3 days in DM. Differentiation was assessed after 7 days of treatment, by measuring the lipid content in the cells, using the Triglyceride (INFINITY) reagent (Quantitative assay). • Controls: All cells, including control cells (vehicle), are treated with the same volume of dimethyl sulfoxide (DMSO) never exceeding 0.1% final solvent concentration. As a positive control for differentiation, cells were treated with 10 μg insulin per ml and 2.5 μM dexamethasone (Ins/Dex).

[2] = molecular target: T1, AKT1/PKBα (Homo sapiens, UniProt P31749); assay: In vitro assay for AKT1/PKBα kinase activity inhibition; type: biochemical; settings: at 5 μM, pre-incubation 10 minute at 30° C.
T1 construct: purchased Upstate 14-276
Description: The assay was performed using a similar approach as described by Standaert, Mary L., et al. J. Biol. Chem. 1999, 274, 25308–25316; and Aman, M. J. et al, J. Biol. Chem. 1998, 273, 33922–33928. The assay was performed using purified recombinant His-tagged AKT1/PKBα enzyme purchased from Upstate catalog # 14-276 following the manufacturer instruction. The assay is to measure phosphotransferase activity in purified His-tagged AKT1/PKBα. The purified enzyme is used to transfer the γ phosphate of [γ-32P]-ATP to a specific substrate, AKT/GSK peptide [RPRAATA] (upstate Catalog # 12-340). The phosphorylated substrate is then separated from the residual [γ-32P]ATP by using P81 phosphocellulose paper accompanied with extensive washing followed by quantitation using scintillation counter. The assay is linear for incubation times for up to 30 minutes and incorporation of up to 20% of total ATP. This enzyme assay is rapid, convenient and specific for AKT/PKB.
For testing the effect of Compound 2 on the AKT kinase activity, 0.3 μg AKT was pre-incubated with 1 μl of different Compound 2 stock concentration to give the final indicated concentration in total volume of 20 μl reaction buffer. As control 0.3 μg AKT was incubated with 1 μl Vehicle or alone in total volume of 20 μl reaction buffer. After a 10 minute incubation at 30° C., the kinase reaction was carried out according to the instruction of the manufacturer.

[3] = molecular target: T2, PPARγ (Homo sapiens, UniProt P37231); assay: In vitro transactivation assay in CV-1 cells, antagonism of BRL49653-induced Gal-PPARγ activation; type: cell-based; settings: with 1 μM agonist BRL49653, dose-dependent
T2 construct: expressed in transfected cells; host or cells: CV-1 (green monkey kidney) cells, transient calcium phosphate transfection
T2 sequence (P37231 238-503 limits assumed): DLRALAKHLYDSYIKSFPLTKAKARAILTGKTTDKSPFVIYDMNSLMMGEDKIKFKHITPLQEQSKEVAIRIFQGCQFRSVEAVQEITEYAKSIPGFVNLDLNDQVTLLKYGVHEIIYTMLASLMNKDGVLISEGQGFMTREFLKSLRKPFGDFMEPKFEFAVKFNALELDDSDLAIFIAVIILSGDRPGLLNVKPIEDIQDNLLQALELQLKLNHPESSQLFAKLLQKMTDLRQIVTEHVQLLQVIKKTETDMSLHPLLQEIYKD
Description: (§1) In vitro screens such as the transactivation assay can be used to measure the ability of a compound to inhibit a nuclear receptor regulating lipid or carbohydrate uptake, synthesis or metabolism. In the assay described herein compounds can be identified that can inhibit activation of the following nuclear receptors: LXR, PPARα, PPARγ and FXR. This activity can be useful to treat lipid disorders such as hypercholesteremia and obesity.
(§2) Cell line: Kidney Green Monkey CV-1 cells.
(§3) Growing culturing medium: Dulbecco's modified Eagle's medium (DMEM) supplememnted with 10% fetal calf serum (FCS).
(§4) Procedure: CV-1 cells were plated in 48 well-plate culture plates, at a density of 10,000 cells/well, 24 h prior to transfection. One to three hours before transfection, cells were fed with fresh medium. A modified calcium phosphate precipitation procedure was used for transient transfection (Pfahl, M. et al., 1990, Methods in Enzymology 189: 256).
(§5) Typically, 40 ng reporter plasmid and 20 ng of each receptor expression vector were mixed, together with 10 ng of β-galactosidase control plasmid (pCH110, Pharmacia, Piscataway, N.J.) and Bluescript plasmid to obtain a total of 400 ng DNA per well. To this mixture 1 μl of 2.5M CaCl2 and 10 μl of BBS buffer, pH 6.95, were added afterward. […]

[4] = test system: LXR; assay: In vitro transactivation assay in CV-1 cells, antagonism of T0901317-induced Gal-LXR activation; type: cell-based; settings: with 1 μM agonist T0901317
Description: as §1, §2, §3, §4, §5

T1 sequence (P31749 whole entry): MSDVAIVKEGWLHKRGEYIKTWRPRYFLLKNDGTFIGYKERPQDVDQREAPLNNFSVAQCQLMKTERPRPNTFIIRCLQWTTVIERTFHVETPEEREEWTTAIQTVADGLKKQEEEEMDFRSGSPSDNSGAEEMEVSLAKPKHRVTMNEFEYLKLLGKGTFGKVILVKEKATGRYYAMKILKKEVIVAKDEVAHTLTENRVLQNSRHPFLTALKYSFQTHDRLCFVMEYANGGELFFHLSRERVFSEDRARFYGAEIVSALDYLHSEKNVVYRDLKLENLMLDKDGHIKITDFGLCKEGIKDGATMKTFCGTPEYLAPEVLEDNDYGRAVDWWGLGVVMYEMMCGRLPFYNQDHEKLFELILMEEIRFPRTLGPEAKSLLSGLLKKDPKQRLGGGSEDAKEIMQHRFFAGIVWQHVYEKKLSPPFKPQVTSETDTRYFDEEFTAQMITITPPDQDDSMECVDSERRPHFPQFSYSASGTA

Row | Structure (SMILES) | inhibition of AKT activity compared to Control or Vehicle [2] | lipid accumulation / differentiation of 3T3-L1 cells by the compound alone [1] | inhibition of adipocyte differentiation / lipid accumulation induced by rosiglitazone (BRL49653) [1] | also measured
1 | COc1ccc(/C=C2\SC(=S)N(CC(=O)O)C2=O)cc1-c1cc2c(cc1C)C(C)(C)CCC2(C)C [Compound 1, {5-[4-Methoxy-3-(3,5,5,8,8-pentamethyl-5,6,7,8-tetrahydro-naphthalen-2-yl)-benzylidene]-4-oxo-2-thioxo-thiazolidin-3-yl}-acetic acid] |  | lacked that ability | potently inhibited | 
2 | COc1ccc(/C=C2\SC(=O)N(CCc3ccccn3)C2=O)cc1-c1cc2c(cc1C)C(C)(C)CCC2(C)C [Compound 6, 5-[4-Methoxy-3-(3,5,5,8,8-pentamethyl-5,6,7,8-tetrahydro-naphthalen-2-yl)-benzylidene]-3-(2-pyridin-2-yl-ethyl)-thiazolidine-2,4-dione] |  |  |  | melting point: 170 to 171 °C
3 | COc1cc2c(cc1-c1c(/C=C3\SC(=S)N(CC(=O)O)C3=O)cc(-c3ccccc3)cc1OC)C(C)(C)CCC2(C)C [Compound 8, {5-[5-Phenyl-3-methoxy-2-(3-methoxy-5,5,8,8-tetramethyl-5,6,7,8-tetrahydro-naphthalen-2-yl)-benzylidene]-4-oxo-2-thioxo-thiazolidin-3-yl}-acetic acid] |  | lacked the ability to differentiate 3T3-L1 cells by themselves | strongly inhibited | inhibition at 10 µM [3]: 80 to 90%; antagonism of T0901317-induced LXR activation (in words) [4]: only antagonize the activation activity of BRL49653 for PPARγ
4 | COc1ccc(/C=C2\SC(=S)NC2=O)cc1-c1cc2c(cc1C)C(C)(C)CCC2(C)C [Compound 71, reference compound] |  | induced lipid accumulation |  | 
5 | COc1cc2c(cc1-c1c(/C=C3\SC(=S)N(CC(=O)O)C3=O)cc(-c3ccccc3)cc1OC)C(C)(C)CCC2(C)C [Compound 72, reference compound] |  | induced lipid accumulation |  | 

Further lines, with some results ahead:

Row | inhibition of AKT activity compared to Control or Vehicle [2] | Structure (SMILES) | lipid accumulation / differentiation of 3T3-L1 cells by the compound alone [1] | inhibition of adipocyte differentiation / lipid accumulation induced by rosiglitazone (BRL49653) [1] | also measured
6 | showed inhibition | Cc1cc2c(cc1-c1cc(/C=C3\SC(=S)N(CC(=O)O)C3=O)ccc1OC(F)(F)F)C(C)(C)CCC2(C)C [Compound 2, {5-[4-Trifluoromethoxy-3-(3,5,5,8,8-pentamethyl-5,6,7,8-tetrahydronaphthalen-2-yl)-benzylidene]-4-oxo-2-thioxo-thiazolidin-3-yl}-acetic acid] | lacked that ability | potently inhibited | 
7 | showed inhibition | COc1ncc(/C=C2\SC(=S)N(CC(=O)O)C2=O)cc1-c1cc2c(cc1C)C(C)(C)CCC2(C)C [Compound 3, {5-[6-Methoxy-5-(3,5,5,8,8-pentamethyl-5,6,7,8-tetrahydro-naphthalen-2-yl)-pyridin-3-ylmethylene]-4-oxo-2-thioxo-thiazolidin-3-yl}-acetic acid] |  |  | 
8 | showed inhibition | CN(C)c1ccc(/C=C2\SC(=S)N(CC(=O)O)C2=O)cc1-c1cc2c(cc1N(C)C)C(C)(C)CCC2(C)C [Compound 10, {5-[4-Dimethylamino-3-(3-dimethylamino-5,5,8,8-tetramethyl-5,6,7,8-tetrahydro-naphthalen-2-yl)-benzylidene]-4-oxo-2-thioxo-thiazolidin-3-yl}-acetic acid] |  |  | 
9 | showed inhibition | CCOc1ccc(-c2ccc(OC)c(C(C)(C)C)c2)cc1/C=C1\SC(=S)N(CC(=O)O)C1=O [Compound 67] |  |  | 
